Where two headings read alike, the source gives them in different places.
Key:
[1] = Microsome clearance (mouse); format: in vitro ADME; details: mouse liver microsomes, 45 min, NADPH
Procedure: (§1) Human or mouse liver microsomes were incubated with the test compound at a concentration of 1 μM for 45 min in the presence of cofactor (NADPH in excess). Samples were collected at various time points, and % remaining of test compound was determined using mass spectrometry (LC-MS/MS) to calculate hepatic clearance rate (L/h/kg).

[2] = Microsome clearance (human); format: in vitro ADME; details: human liver microsomes, 45 min, NADPH, read-out: Microsomes (h) clearance (converted)
Procedure: as §1

[3] = Hepatocyte clearance; format: in vitro ADME; details: cryopreserved hepatocytes, 120 min, read-out: Hep. clearance (converted)
Procedure: Cryopreserved hepatocytes were exposed to test Compounds at a concentration of 1 μM for 120 minutes. Samples were collected at various time points, and percent remaining of test compound was determined using mass spectrometry (LC-MS/MS) to calculate hepatic clearance rate (L/h/kg).

[4] = target: T1, CYP2D6 (Homo sapiens, UniProt P10635); experiment: CYP inhibition assay 2D6; format: in vitro ADME
T1 construct: purchased BD Gentest
T1 sequence (P10635 whole entry): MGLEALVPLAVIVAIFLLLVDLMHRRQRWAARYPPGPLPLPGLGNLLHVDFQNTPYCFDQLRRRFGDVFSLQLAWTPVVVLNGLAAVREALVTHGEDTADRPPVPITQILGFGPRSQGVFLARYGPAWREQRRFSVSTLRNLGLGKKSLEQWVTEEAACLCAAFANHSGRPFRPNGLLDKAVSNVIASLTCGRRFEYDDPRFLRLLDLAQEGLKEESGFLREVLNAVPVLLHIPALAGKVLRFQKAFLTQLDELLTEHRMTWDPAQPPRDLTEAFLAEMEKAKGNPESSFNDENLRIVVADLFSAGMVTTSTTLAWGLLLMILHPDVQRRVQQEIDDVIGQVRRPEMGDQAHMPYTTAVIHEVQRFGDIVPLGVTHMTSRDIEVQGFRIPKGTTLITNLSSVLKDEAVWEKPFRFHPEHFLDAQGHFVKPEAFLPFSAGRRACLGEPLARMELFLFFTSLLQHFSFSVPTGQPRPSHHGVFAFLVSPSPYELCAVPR
Procedure: The half-maximal inhibitory concentration (IC50) for cytochrome P450 (CYP) enzymes was determined using an in vitro enzyme inhibition assay. Recombinant CYP enzymes or human liver microsomes from BD Gentest, in 0.1 M phosphate buffer pH 7.4, containing native CYP enzymes were incubated with the test compound at various concentrations (1, 3, 10 and 30 μM) and containing 0.5% DMSO and 0.1% BSA final concentrations. 1 mM of NADPH cofactor was added and the reaction was started by a rapid increase of temperature until 37°C.

[5] = target: potassium channel human Ether-a-go-go Related Gene (hERG) (Homo sapiens, UniProt Q12809); experiment: hERG channel inhibition; format: cell-based
potassium channel human Ether-a-go-go Related Gene (hERG), sequence (Q12809 whole entry): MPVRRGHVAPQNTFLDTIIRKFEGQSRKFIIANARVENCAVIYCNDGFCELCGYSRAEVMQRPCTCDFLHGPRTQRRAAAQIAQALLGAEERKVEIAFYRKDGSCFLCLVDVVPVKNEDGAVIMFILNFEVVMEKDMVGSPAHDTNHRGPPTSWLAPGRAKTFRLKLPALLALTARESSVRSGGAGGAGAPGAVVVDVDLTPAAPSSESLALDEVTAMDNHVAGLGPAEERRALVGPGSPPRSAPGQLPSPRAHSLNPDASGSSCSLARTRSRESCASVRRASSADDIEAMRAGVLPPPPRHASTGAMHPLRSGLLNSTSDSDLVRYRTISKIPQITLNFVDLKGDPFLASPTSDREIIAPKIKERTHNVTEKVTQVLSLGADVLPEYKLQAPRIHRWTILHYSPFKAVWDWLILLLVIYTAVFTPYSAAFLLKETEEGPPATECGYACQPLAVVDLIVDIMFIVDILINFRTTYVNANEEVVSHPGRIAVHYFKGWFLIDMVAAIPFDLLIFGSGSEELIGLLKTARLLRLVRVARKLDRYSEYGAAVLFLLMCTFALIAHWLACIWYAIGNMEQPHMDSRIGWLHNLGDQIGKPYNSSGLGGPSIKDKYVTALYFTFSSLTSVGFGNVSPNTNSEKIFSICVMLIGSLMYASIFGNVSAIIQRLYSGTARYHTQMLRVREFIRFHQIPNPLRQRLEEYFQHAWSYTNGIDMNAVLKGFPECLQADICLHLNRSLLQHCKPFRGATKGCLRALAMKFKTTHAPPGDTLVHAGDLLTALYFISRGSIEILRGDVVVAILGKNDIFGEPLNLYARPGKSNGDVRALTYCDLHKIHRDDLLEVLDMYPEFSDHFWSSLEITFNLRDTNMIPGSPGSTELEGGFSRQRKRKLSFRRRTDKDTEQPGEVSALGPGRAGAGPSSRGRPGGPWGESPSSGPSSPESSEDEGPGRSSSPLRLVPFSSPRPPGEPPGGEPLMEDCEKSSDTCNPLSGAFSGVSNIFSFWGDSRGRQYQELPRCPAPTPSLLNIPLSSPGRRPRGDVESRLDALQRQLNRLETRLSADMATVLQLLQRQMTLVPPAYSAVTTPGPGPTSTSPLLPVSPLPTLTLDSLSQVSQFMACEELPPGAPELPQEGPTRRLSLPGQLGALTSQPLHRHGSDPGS
Description: We next used in vitro assays to test absorption, distribution, metabolism, excretion and toxicity (ADMET) parameters for selected compounds. We assessed compound absorption using parallel artificial membrane permeability (PAMPA) and Caco-2 cell permeability assays (cut-off criterion >2 × 10^−6 cm s^−1). […] To assess potential off-target activity of our compounds that could be relevant for safety in humans, we conducted comprehensive in vitro pharmacology using the commercially available and widely used SafetyScreen44 interaction panel[60] covering eight protein families.

[6] = system: primary mouse neuronal cultures; experiment: Glutamate-induced excitotoxicity assay (RealTime-Glo viability); format: cell-based; details: 5 μM, primary mouse neuronal cultures
Procedure: To evaluate the in vitro efficacy of our developed compounds, we employed primary mouse neuronal cultures (PNCs) and conducted glutamate-induced excitotoxicity assays. Cultures were pre-treated with respective Series 1 and Series 3 compounds before glutamate exposure, and neuronal viability was assessed 15 h post-stimulation with glutamate.
Figure 3 Neuroprotective in vitro evaluation and in vivo pharmacokinetics (A) In vitro evaluation of compound activity on glutamate-induced excitotoxicity in mature primary neuronal cultures. Neuronal cultures were treated with 5 μM of the specified compound or vehicle control 5 h prior to glutamate stimulation, assessing compound rescue activity and toxicity relative to minimal (Vehicle +0 μM Glu) and maximal (Vehicle +50 μM Glu) excitotoxicity. Time course of a representative compound with virtual endpoint at 15 h post stimulation and assay window definition (left). Toxicity of compound treated cultures with and without glutamate stimulation (right). Data are represented as mean and 95% confidence interval; n ≥ 4; ∗p < 0.05, ∗∗p < 0.01, ∗∗∗p < 0.001; One-sample Wilcoxon signed-rank test. […] Mitochondrial membrane potential was measured by the mean fluorescence intensity of TMRE normalized to MitoTracker. Data are represented as mean ± SEM; n = 5; paired t-test. (C) In vivo pharmacokinetics of four selected compounds. Time course of compound concentration in the brain, heart, and plasma after a single dose via intraperitoneal (i.p.) or intravenous (i.v.) application. Data are represented as mean ± SEM. Half-life estimates by non-compartmental analysis are shown as vertical line and IC50 value as dashed horizontal line. (D) Compound concentration in the brain relative to respective IC50 concentrations after a single dose via intra-peritoneal or intra-venous routes. Also see Figure S6.
Excitotoxicity assays were performed using primary mouse neuronal cultures between 14 and 17 days in vitro (DIV). Cell viability was measured using RealTime-Glo MT Cell Viability Assay (Promega, catalog no. G9711) according to the manufacture protocol. Compounds were co-administered with RealTime-Glo reagents, and luciferase measurements were conducted using the Tecan-Spark M10 microplate reader with environmental control set to 37°C and 5% CO2. Neuronal cultures were stimulated with either glutamate or vehicle five hours after compound application and monitored for an additional 20 hours. To adjust for inter-well variability, arbitrary light units were normalized to a steady signal prior to glutamate addition for each well. Toxicity was calculated relative to the minimal cell viability at 15 hours post glutamate stimulation and cell viability of the PBS vehicle control.

Row | SMILES | CLint scaled at 1 μM [1] | CLint scaled at 1 μM [2] | IC50 ([4]; human, pH 7.4) | CLint scaled at 1 μM [3] | IC50 [4] | IC50 [5] | Compound toxicity in neuronal cultures [6]
1 | Fc1cccc(-c2ccccc2NCc2nc3ccccc3o2)c1 [CMP343] | > 900 mL/min/kg | 570 mL/min/kg |  | 322 mL/min/kg | > 50 µM | > 30 µM | 
2 | Fc1ccccc1-c1ccccc1NCc1nc2ccccc2o1 [CMP353] | > 900 mL/min/kg | 605 mL/min/kg |  | 562 mL/min/kg | > 50 µM | > 10 µM | observed toxicity
3 | Cc1ccsc1-c1ccccc1NCc1nc2ccccc2o1 [CMP369] | > 900 mL/min/kg | 600 mL/min/kg | > 50 µM | 347 mL/min/kg |  | > 10 µM | observed toxicity

The next lines start with results.

Row | CLint scaled at 1 μM [1] | CLint scaled at 1 μM [2] | IC50 ([4]; human, pH 7.4) | SMILES | CLint scaled at 1 μM [3] | IC50 [4] | IC50 [5] | Compound toxicity in neuronal cultures [6]
4 | > 900 mL/min/kg | 558 mL/min/kg |  | c1csc(-c2ccccc2NCc2nc3ccccc3o2)c1 [CMP355] | 293 mL/min/kg | > 50 µM | > 10 µM | observed toxicity
5 | 900 mL/min/kg | 243 mL/min/kg |  | Nc1ccccc1-c1ccccc1NCc1nc2ccccc2o1 [CMP457] |  | > 50 µM |  | observed toxicity
